These results are taken from ChEMBL document CHEMBL1143113, “Design and synthesis of 4-[(s-triazin-2-ylamino)methyl]-N-(2-aminophenyl)-benzamides and their analogues as a novel class of histone deacetylase inhibitors” (Bioorg Med Chem Lett, 2008).

Activity calls are given as the source filed them. The calls are words filed in the database; no cut-off is given here.

The target of experiment [1] is T1, Histone deacetylase 1 (Homo sapiens, UniProt Q13547). Nature of the experiment: Inhibition of human recombinant HDAC1.
Experiment [2] deals with HCT-116. Nature of the experiment: Cytotoxicity against human HCT116 cells by MTT assay. It is filed as functional, cell-based. (Formazan colour is commonly taken as a measure of viable cells.)
A short description of experiment [3]: Induction of histone H4 acetylation in human […]. It is filed as functional, cell-based.
In a further experiment the test system is HMEC. Nature of the experiment: Cytotoxicity against human HMEC cells by MTT assay. It is filed as cell-based.
The target of experiment [4] is T2, Histone deacetylase 7 (Homo sapiens) (UniProt Q8WUI4).
T2 sequence (whole entry): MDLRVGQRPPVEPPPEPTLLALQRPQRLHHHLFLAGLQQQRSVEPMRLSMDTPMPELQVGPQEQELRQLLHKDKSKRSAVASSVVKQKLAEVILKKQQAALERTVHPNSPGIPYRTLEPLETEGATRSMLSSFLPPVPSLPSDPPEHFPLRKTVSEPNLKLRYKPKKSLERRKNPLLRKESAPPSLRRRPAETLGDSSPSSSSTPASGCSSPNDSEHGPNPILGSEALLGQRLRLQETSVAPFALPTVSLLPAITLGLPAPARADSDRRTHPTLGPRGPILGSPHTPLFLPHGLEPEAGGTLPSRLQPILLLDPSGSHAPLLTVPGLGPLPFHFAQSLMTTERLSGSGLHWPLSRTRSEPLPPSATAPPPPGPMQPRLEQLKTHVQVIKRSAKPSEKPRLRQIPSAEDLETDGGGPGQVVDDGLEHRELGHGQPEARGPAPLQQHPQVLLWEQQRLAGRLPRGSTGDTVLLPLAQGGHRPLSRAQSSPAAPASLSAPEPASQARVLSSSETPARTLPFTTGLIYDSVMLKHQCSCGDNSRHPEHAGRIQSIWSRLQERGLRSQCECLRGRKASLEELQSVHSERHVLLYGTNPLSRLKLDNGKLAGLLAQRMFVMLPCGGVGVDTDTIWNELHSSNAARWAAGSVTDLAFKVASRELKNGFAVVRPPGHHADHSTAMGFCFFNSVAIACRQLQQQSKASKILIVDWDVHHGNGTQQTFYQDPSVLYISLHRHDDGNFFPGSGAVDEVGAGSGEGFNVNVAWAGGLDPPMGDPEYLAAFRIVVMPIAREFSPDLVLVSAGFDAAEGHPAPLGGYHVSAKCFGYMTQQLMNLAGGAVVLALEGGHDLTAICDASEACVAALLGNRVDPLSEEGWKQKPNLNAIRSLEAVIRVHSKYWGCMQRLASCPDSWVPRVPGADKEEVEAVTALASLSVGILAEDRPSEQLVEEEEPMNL
Nature of the experiment: Activity against HDAC7.

Experiment [5] relates to HCT-116. Nature of the experiment: Antitumor activity in human HCT116 tumor bearing mouse at 40 mg/kg/day, ip after 2 weeks. It is filed as functional. The settings on record: HCT-116, ip, 336 h, route intraperitoneal.
Experiment [6] addresses Histone deacetylase 5 (Homo sapiens) (UniProt Q9UQL6). Nature of the experiment: Activity against HDAC5.
The target in experiment [7] is T3, Protein deacetylase HDAC6 (Homo sapiens) (UniProt Q9UBN7).
T3 sequence (whole entry): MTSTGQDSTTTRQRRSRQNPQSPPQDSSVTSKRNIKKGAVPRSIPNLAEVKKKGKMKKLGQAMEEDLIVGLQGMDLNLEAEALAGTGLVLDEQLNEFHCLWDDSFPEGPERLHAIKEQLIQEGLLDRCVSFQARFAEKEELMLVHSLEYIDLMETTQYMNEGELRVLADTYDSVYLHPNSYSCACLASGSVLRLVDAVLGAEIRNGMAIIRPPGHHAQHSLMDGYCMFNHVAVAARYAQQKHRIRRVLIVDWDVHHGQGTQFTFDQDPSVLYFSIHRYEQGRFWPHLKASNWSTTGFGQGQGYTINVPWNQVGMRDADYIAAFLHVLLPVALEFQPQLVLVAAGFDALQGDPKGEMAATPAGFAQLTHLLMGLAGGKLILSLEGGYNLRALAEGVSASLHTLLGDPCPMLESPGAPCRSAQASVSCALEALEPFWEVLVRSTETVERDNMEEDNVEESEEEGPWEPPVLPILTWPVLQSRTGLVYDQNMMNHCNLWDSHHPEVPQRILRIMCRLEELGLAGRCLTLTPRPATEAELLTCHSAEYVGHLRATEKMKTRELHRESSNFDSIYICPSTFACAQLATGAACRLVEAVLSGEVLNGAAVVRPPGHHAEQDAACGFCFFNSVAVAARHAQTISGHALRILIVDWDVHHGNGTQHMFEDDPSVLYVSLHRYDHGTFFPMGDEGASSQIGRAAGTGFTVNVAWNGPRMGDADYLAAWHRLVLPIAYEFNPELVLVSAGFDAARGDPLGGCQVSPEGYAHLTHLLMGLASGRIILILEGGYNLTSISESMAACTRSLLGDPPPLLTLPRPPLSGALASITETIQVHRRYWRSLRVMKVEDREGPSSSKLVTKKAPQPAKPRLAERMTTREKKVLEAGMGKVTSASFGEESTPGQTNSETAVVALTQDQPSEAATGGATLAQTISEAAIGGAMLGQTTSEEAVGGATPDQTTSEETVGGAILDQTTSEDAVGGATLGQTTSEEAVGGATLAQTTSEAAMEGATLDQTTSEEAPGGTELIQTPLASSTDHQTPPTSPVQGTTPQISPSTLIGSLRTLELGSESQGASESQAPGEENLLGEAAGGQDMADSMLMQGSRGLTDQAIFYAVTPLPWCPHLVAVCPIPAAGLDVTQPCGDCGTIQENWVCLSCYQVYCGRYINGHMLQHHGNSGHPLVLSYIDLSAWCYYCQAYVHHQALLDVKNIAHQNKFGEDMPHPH
Nature of the experiment: Activity against HDAC6.

Experiment [8] has as its target Histone deacetylase 3 (Homo sapiens) (UniProt O15379). Nature of the experiment: Activity against HDAC3.
In experiment [9] the target is Histone deacetylase 4 (Homo sapiens) (UniProt P56524). Nature of the experiment: Activity against HDAC4.
Experiment [10] has as its target Histone deacetylase 2 (Homo sapiens) (UniProt Q92769). Nature of the experiment: Activity against HDAC2.
For experiment [11], the target named is T1, Histone deacetylase 1. Nature of the experiment: Activity against HDAC1.
The subject of experiment [12] is HCT-116. Nature of the experiment: Antitumor activity in human HCT116 tumor bearing mouse at 20 mg/kg/day, ip after 2 weeks. The conditions noted are these: HCT-116, ip, 336 h, route intraperitoneal. It is filed as functional.

Chain of Histone deacetylase 3 (Homo sapiens) (O15379 whole entry): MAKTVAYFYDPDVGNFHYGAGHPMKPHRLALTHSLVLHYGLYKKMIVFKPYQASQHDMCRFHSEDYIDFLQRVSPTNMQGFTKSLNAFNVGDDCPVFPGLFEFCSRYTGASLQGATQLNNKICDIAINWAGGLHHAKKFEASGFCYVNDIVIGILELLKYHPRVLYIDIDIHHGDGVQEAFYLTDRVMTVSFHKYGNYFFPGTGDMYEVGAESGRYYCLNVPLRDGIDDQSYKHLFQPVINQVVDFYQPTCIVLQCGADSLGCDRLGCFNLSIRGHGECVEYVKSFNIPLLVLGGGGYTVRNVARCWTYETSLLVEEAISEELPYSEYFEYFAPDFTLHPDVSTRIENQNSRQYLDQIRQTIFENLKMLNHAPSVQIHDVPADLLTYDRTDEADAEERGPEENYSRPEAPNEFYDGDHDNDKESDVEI
T1 sequence (Q13547 whole entry): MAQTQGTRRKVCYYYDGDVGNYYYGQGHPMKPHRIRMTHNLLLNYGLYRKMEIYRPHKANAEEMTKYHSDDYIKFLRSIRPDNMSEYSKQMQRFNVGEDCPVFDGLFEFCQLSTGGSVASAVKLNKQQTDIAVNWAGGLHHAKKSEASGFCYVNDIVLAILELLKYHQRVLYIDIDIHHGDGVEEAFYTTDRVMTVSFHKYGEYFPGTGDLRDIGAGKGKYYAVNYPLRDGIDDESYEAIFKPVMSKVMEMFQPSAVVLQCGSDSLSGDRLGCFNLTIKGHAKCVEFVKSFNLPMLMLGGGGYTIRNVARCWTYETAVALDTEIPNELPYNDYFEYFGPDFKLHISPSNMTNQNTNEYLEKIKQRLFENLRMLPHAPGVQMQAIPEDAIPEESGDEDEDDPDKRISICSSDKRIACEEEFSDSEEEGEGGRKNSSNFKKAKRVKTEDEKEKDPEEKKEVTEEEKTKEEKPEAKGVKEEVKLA
Chain of Histone deacetylase 2 (Homo sapiens) (Q92769 whole entry): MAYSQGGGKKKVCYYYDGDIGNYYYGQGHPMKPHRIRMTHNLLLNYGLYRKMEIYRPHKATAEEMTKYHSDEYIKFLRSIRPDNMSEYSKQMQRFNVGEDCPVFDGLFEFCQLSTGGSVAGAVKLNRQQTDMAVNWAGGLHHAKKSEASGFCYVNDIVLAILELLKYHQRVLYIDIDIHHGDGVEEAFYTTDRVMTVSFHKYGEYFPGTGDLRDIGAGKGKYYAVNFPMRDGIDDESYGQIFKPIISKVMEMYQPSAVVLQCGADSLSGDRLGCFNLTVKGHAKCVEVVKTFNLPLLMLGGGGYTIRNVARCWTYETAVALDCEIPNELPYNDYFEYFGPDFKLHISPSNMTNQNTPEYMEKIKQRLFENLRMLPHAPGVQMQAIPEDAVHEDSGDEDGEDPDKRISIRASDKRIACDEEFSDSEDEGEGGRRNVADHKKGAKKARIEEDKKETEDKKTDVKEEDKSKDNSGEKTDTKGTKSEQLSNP
Chain of Histone deacetylase 4 (Homo sapiens) (P56524 whole entry): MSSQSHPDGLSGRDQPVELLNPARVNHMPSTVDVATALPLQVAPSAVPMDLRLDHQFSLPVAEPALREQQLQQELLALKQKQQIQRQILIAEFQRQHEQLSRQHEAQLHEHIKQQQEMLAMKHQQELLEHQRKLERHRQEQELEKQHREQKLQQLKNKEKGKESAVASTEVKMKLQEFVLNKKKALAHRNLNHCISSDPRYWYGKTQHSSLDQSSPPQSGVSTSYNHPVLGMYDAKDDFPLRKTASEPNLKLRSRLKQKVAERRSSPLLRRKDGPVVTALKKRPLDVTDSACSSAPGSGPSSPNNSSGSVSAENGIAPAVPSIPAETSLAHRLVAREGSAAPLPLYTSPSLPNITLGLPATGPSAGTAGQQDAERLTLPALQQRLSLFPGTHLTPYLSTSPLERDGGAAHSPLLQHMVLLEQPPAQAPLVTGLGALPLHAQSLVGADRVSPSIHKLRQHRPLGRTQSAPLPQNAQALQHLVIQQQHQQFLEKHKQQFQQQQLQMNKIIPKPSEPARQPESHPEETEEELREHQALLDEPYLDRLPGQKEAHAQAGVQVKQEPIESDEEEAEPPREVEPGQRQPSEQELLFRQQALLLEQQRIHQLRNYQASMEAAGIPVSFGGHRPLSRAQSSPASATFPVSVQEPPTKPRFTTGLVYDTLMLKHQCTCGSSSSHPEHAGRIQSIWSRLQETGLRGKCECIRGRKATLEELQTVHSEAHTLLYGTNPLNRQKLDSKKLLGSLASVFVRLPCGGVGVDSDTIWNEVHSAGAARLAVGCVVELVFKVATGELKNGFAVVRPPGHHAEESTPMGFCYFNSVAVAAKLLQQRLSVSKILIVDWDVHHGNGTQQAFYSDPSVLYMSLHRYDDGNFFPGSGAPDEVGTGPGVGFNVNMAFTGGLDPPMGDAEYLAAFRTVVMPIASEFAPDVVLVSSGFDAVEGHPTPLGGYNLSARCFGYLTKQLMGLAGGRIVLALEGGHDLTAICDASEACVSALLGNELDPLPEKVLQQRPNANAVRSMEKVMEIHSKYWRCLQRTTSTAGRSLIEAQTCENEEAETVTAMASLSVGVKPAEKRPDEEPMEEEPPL
Chain of Histone deacetylase 5 (Homo sapiens) (Q9UQL6 whole entry): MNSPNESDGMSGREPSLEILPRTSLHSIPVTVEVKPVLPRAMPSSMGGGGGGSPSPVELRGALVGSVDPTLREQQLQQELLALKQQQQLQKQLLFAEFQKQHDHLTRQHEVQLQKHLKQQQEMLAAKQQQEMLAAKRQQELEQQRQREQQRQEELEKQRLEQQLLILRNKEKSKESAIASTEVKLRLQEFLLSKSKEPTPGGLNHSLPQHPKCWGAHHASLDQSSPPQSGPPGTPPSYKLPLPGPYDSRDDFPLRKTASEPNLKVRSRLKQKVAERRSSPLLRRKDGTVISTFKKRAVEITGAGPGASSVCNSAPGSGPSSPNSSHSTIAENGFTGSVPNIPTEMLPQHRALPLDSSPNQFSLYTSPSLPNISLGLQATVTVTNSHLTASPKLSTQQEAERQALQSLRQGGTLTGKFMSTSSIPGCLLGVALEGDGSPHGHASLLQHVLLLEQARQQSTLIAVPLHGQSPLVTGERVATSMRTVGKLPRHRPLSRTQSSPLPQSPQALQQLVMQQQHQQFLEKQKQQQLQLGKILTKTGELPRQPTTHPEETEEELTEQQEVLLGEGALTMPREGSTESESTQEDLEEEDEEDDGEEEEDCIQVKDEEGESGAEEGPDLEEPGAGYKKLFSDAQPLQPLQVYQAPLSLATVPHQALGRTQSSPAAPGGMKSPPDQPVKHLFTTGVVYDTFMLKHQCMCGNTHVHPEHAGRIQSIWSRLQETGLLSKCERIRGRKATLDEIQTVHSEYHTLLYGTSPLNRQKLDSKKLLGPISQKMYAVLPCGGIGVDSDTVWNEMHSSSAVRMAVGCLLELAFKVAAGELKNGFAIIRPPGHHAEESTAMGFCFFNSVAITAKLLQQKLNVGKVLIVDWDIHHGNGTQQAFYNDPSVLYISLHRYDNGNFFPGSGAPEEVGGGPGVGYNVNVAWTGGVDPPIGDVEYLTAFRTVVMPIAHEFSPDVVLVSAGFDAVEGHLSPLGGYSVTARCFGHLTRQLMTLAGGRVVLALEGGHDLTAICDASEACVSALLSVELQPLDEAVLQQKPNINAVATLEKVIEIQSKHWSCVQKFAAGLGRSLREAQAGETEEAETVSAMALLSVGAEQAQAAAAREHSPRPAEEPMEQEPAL

What is called IC50 is the concentration that inhibits the measured activity by half. As to `Nc1ccccc1NC(=O)c1ccc(CSc2ccccn2)cc1`, the IC50 at Histone deacetylase 1 [1] worked out at 300 nM; with HCT-116 [2] it was 1000 nM.
On the same counts, the results for `Nc1nc(NCc2ccc(C(=O)Nc3ccccc3N)cc2)c2nc[nH]c2n1` are 200 nM and 10000 nM.
`Nc1ccccc1NC(=O)c1ccc(CNc2cccc(F)n2)cc1`: the IC50 at Histone deacetylase 1 [1] was 100 nM; in the experiment on HCT-116 [2] it was 1000 nM.
As a reminder, the EC50 is the concentration that produces a half-maximal response. Low readings indicate higher potency in that assay, high ones lower potency in that assay. As for `Nc1nc(NCc2ccc(C(=O)Nc3ccccc3N)cc2)nc(N2Cc3ccccc3C2)n1`, the figures for the 50% inhibitory concentration (IC50) at Histone deacetylase 1 [1], with HCT-116 [2] and in the experiment on HMEC were 40 nM, 500 nM and greater than 50 µM, respectively. The compound also registered an EC50 in experiment [3] of 1000 nM.
Consider `COc1ccc(NCc2ccc(C(=O)Nc3ccccc3N)cc2)cn1`, for which the results for the IC50 on Histone deacetylase 1 [1] and with HCT-116 [2] were 100 nM and 700 nM, respectively.
By inhibition in vivo is commonly meant how much of the control response was suppressed. A high value points to strong suppression. Turning to `Nc1nc(NCc2ccc(C(=O)Nc3ccccc3N)cc2)nc(NC2CCCC2)n1`, the IC50 on Histone deacetylase 1 [1] turned out to be 200 nM; with HCT-116 [2], 700 nM; with HMEC, 11 µM. For the same compound, the result in experiment [4], in [6], in experiment [7] and in experiment [9] was inactive. The compound further came in with an inhibition in vivo at 40 mg/kg/day in the experiment with HCT-116 [5] of 50%. This compound registered an EC50 in experiment [3] of 800 nM. The outcome (in [8]; in [10]; on Histone deacetylase 1 [11]) was Active.
As for `CCCCn1cnc2c(NCc3ccc(C(=O)Nc4ccccc4N)cc3)nc(Cl)nc21`, the results for the IC50 at Histone deacetylase 1 [1] and with HCT-116 [2] were 50 nM and 100 nM, respectively.
Take `Nc1ccccc1NC(=O)c1ccc(CNc2nc(NC3CC3)nc(NC3Cc4ccccc4C3)n2)cc1`: the half-inhibitory concentration (IC50) was 30 nM at Histone deacetylase 1 [1], 1000 nM in the experiment on HCT-116 [2] and 18 µM with HMEC. This compound also came in with an EC50 in experiment [3] of 1000 nM.
As for `Cc1ccc(C#N)c(OCc2ccc(C(=O)Nc3ccccc3N)cc2)n1`, the concentration for half-maximal inhibition (IC50) came to 300 nM at Histone deacetylase 1 [1] and 500 nM in the experiment with HCT-116 [2].
`Nc1nc(NCc2ccc(C(=O)Nc3ccccc3N)cc2)nc(N2CCOCC2)n1`: the IC50 was 200 nM on Histone deacetylase 1 [1], 800 nM in the experiment on HCT-116 [2] and greater than 40 µM with HMEC. Besides, the outcome in [4], in [6], in [7] and in experiment [9] was inactive. For the same compound, in the experiment on HCT-116 [5], the inhibition in vivo at 40 mg/kg/day was 50%. For the same compound, in experiment [3], the midpoint of the response, the EC50, lay at 5000 nM. In addition, the outcome (in [8]; in experiment [10]; at Histone deacetylase 1 [11]) was Active.
For `CCCCn1cnc2c(NCc3ccc(C(=O)Nc4ccccc4N)cc3)nc(N)nc21`, the IC50 came out at 300 nM on Histone deacetylase 1 [1] and 2000 nM with HCT-116 [2].
`Nc1nc(NCc2ccc(C(=O)Nc3ccccc3N)cc2)nc(N2CCc3ccccc32)n1`: the results for the half-inhibitory concentration (IC50) on Histone deacetylase 1 [1], in the experiment on HCT-116 [2] and in the experiment with HMEC were 100 nM, 800 nM and 10 µM, respectively. Besides, the EC50 in experiment [3] is 1000 nM.
Turning to `Nc1ccccc1NC(=O)c1ccc(CNc2nc(NC3Cc4ccccc4C3)nc(N3CCOCC3)n2)cc1`, the results for the half-maximal inhibitory concentration (IC50) at Histone deacetylase 1 [1], in the experiment with HCT-116 [2] and in the experiment with HMEC were 80 nM, 2000 nM and greater than 50 µM, respectively. Moreover, the EC50 in [3] is 1000 nM.
Taken in the same sequence, the figures for `Nc1nc(NCCc2ccccc2)nc(NCc2ccc(C(=O)Nc3ccccc3N)cc2)n1` were 100 nM, 300 nM, 21 µM and 1000 nM.
In the case of `COc1ccc(-c2cc(Cl)nc(NCc3ccc(C(=O)Nc4ccccc4N)cc3)n2)cc1OC`, the half-inhibitory concentration (IC50) at Histone deacetylase 1 [1] came to 100 nM; in the experiment on HCT-116 [2] it was 400 nM.
Take `COc1ccc(-c2ccnc(NCc3ccc(C(=O)Nc4ccccc4N)cc3)n2)cc1OC`: the IC50 on Histone deacetylase 1 [1] is 50 nM; in the experiment with HCT-116 [2], 100 nM.
On the same counts, the results for `COc1cc(OC)nc(NCc2ccc(C(=O)Nc3ccccc3N)cc2)n1` are 100 nM and 600 nM.
In the case of `Cc1cc(C)nc(NCc2ccc(C(=O)Nc3ccccc3N)cc2)n1`, the half-inhibitory concentration (IC50) at Histone deacetylase 1 [1] amounted to 300 nM; in the experiment with HCT-116 [2], 1000 nM.
As to `Nc1ccccc1NC(=O)c1ccc(CNc2nc(NCCN3CCOCC3)nc(NC3Cc4ccccc4C3)n2)cc1`, the IC50 at Histone deacetylase 1 [1] was 70 nM; in the experiment with HCT-116 [2], 600 nM; with HMEC, 16 µM. Also, the result in experiment [4], in [6], in [7] and in experiment [9] was inactive. In addition, the inhibition in vivo at 20 mg/kg/day in the experiment on HCT-116 [12] came to 49%. In addition, in experiment [3], a half-maximal effect (EC50) was put at 1000 nM. For the same compound, the result (in experiment [8]; in experiment [10]; at Histone deacetylase 1 [11]) was Active.
On to `COc1cccc(NCc2ccc(C(=O)Nc3ccccc3N)cc2)n1`, for which the half-maximal inhibitory concentration (IC50) was found to be 100 nM at Histone deacetylase 1 [1] and 800 nM in the experiment on HCT-116 [2].
With `Nc1nc(NCc2ccc(C(=O)Nc3ccccc3N)cc2)nc(NC2Cc3ccccc3C2)n1`, the figures for the 50% inhibitory concentration (IC50) at Histone deacetylase 1 [1], in the experiment with HCT-116 [2] and in the experiment on HMEC were 200 nM, 600 nM and 8 µM, respectively. The outcome in experiment [4], in experiment [6], in experiment [7] and in experiment [9] was inactive. In experiment [3], the EC50 was found to be 1000 nM. Further, the outcome (in experiment [8]; in experiment [10]; at Histone deacetylase 1 [11]) was Active.
Consider `COc1cc(NCc2ccc(C(=O)Nc3ccccc3N)cc2)ncn1`, for which the values for the IC50 at Histone deacetylase 1 [1] and with HCT-116 [2] were 200 nM and 1000 nM, respectively.
On the same counts, the results for `Nc1ccccc1NC(=O)c1ccc(CNc2ncccn2)cc1` are 700 nM and 2000 nM.
